Test results published in publication PMC4066871 (Bioorganic & medicinal chemistry letters, 2013).

Tests used:
GIRK = settings: cited from earlier work
GIRK1/GIRK2 = molecular target: T1, GIRK1/GIRK2 (Homo sapiens, UniProt P48051+P48549); assay: GIRK1/2 thallium flux assay in stably transfected HEK-293 cells; format: cell-based
T1 sequence (P48549 1-501): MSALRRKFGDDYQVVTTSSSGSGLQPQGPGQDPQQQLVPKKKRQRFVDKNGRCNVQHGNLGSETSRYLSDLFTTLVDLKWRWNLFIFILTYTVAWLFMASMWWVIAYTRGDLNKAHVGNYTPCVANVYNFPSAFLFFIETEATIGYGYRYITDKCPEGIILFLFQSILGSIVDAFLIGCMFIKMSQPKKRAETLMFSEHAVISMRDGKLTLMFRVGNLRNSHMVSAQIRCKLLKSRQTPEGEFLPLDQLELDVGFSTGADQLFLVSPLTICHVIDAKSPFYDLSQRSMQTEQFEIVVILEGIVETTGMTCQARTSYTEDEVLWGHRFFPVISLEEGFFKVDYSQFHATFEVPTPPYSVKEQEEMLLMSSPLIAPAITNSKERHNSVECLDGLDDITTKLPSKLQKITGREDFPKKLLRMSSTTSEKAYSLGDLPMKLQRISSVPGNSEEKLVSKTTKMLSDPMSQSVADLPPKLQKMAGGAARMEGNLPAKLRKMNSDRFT
T1 sequence (P48051 1-423): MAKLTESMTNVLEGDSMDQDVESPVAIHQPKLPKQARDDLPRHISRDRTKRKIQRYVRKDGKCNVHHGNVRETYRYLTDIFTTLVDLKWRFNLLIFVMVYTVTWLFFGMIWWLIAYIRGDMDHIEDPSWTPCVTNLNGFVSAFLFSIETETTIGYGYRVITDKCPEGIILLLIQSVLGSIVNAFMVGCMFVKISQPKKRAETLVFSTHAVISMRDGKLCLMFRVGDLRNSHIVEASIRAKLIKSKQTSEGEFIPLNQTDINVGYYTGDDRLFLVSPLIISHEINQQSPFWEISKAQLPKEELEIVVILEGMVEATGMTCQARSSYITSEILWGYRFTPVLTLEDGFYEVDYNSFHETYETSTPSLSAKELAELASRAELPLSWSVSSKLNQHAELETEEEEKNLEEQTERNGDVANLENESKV

GIRK1/GIRK4 [1] = molecular target: T2, GIRK1/GIRK4 (Homo sapiens, UniProt P48544+P48549); assay: GIRK1/4 thallium flux assay in stably transfected HEK-293 cells; format: cell-based
T2 sequence (P48549 1-501): T1 sequence (P48549 1-501)
T2 sequence (P48544 1-419): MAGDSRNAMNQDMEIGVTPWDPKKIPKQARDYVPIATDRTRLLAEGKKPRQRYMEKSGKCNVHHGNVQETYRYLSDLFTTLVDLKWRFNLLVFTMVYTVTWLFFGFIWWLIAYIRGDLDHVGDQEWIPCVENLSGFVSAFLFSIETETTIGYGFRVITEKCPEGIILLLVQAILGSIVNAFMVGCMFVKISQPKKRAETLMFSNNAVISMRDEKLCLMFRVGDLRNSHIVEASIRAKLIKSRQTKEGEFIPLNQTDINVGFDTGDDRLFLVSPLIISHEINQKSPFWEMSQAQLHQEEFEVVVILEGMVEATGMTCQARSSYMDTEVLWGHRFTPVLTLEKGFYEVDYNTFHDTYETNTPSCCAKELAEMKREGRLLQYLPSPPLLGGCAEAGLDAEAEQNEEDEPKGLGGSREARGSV

GIRK2/3 = settings: cited from earlier work
GIRK1/2 = settings: cited from earlier work
GIRK1/GIRK4 [2] = molecular target: T2, GIRK1/GIRK4; settings: GIRK1/2 activator vs GIRK1/4; cited from earlier work
other K+ channels = settings: cited from earlier work

| SMILES | GIRK1/2 activity (in words) (GIRK1/GIRK2) | GIRK1/4 activity (in words) (GIRK1/GIRK4 [1]) | other results |
| --- | --- | --- | --- |
| C[C@@H]1O[C@@H](O[C@H]2[C@H](Oc3cc(O)c4c(c3)O[C@H](c3ccc(O)cc3)CC4=O)O[C@H](CO)[C@@H](O)[C@@H]2O)[C@H](O)[C@H](O)[C@H]1O [naringin] | – | – | EC50 (GIRK; read-out: GIRK activation EC50, reported value): > 100 µM |
| CN(C)S(=O)(=O)c1cccc(NC(=O)Cc2ccc(Cl)cc2)c1 [Compd 3c] | diminution in potency | diminution in potency | – |
| CCO [ethanol] | – | – | Concentration known to activate GIRK (GIRK): hundreds of millimolar |
| O=C(Cc1ccccc1Cl)Nc1ccc(C(F)(F)F)cc1 [Compd 8h] | – | selective, partial GIRK1/4 activators | – |
| O=C(Cc1ccccc1Cl)Nc1cccc(Cl)c1 [Compd 8g] | – | selective, partial GIRK1/4 activators | – |
| Cc1ccc(NC(=O)Cc2ccc(F)cc2)cc1S(=O)(=O)N(C)C [Compd 3d] | diminution in potency | diminution in potency | – |
| Cc1cc(NC(=O)Nc2ccc(F)c(F)c2)n(-c2ccccc2)n1 [Compd 2] | – | – | Activity on GIRK2/3 (in words) (GIRK2/3): inactive; CNS penetration (in words) (GIRK1/2): centrally penetrant; Anti-epileptic properties (in words) (GIRK1/2; mice, via GIRK1/2 activation): established anti-epileptic properties in mice; Selectivity for GIRK1/2 vs GIRK1/4 (GIRK1/GIRK4 [2]): ~ 10 fold; Activity on other K+ channels (in words) (other K+ channels): inactive |
| CN(C)S(=O)(=O)c1cccc(NC(=O)Cc2ccccc2Cl)c1 [Compd 3b] | diminished potency and lost efficacy | maintained potency and efficacy | – |
